Here are results for 5 compounds from patent US9382255B2, “Substituted pyrrolopyrimidinylamino-benzothiazolones as MKNK kinase inhibitors” (BAYER PHARMA AKTIENGESELLSCHAFT, priority 2012, dated 2016).

Structures are written as SMILES.

The assay deals with T1, human full-length MKNK1 (Homo sapiens, UniProt Q9BUB5, T385D).
T1 construct: GST (N); purchased Carna Biosciences 02-145; host or cells: insect cells (baculovirus expression system)
T1 sequence (Q9BUB5 1-424 isoform Q9BUB5-2 T344D): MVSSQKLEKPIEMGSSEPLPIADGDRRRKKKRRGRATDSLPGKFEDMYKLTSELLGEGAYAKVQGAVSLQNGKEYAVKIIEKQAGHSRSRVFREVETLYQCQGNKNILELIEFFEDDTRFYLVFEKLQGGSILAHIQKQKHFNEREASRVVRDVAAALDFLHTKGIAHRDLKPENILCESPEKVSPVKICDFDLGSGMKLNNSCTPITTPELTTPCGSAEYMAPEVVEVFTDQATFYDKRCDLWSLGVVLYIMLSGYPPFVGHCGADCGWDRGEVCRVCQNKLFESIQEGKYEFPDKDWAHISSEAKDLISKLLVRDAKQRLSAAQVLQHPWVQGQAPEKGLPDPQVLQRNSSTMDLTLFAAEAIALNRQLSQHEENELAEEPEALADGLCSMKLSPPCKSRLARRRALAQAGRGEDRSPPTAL
In words: MKNK1 kinase high ATP assay (TR-FRET). The format is biochemical. The conditions noted are these: high ATP (2 mM final), 15 min preincubation with enzyme, GST-MKNK1 (T344D). As for the experimental part:
MKNK1 Kinase High ATP Assay
MKNK1-inhibitory activity at high ATP of compounds of the present invention after their preincubation with MKNK1 was quantified employing the TR-FRET-based MKNK1 high ATP assay as described in the following paragraphs.
A recombinant fusion protein of Glutathione-S-Transferase (GST, N-terminally) and human full-length MKNK1 (amino acids 1-424 and T344D of accession number BAA 19885.1), expressed in insect cells using baculovirus expression system and purified via glutathione sepharose affinity chromatography, was purchased from Carna Biosciences (product no 02-145) and used as enzyme. As substrate for the kinase reaction the biotinylated peptide biotin-Ahx-IKKRKLTRRKSLKG (C-terminus in amide form) was used, which can be purchased e.g. from the company Biosyntan (Berlin-Buch, Germany).
For the assay 50 nL of a 100 fold concentrated solution of the test compound in DMSO was pipetted into a black low volume 384 well microtiter plate (Greiner Bio-One, Frickenhausen, Germany), 2 μL of a solution of MKNK1 in aqueous assay buffer [50 mM HEPES pH 7.5, 5 mM MgCL2, 1.0 mM dithiothreitol, 0.005% (v/v) Nonidet-P40 (Sigma)] was added and the mixture was incubated for 15 min at 22° C. to allow pre-binding of the test compounds to the enzyme before the start of the kinase reaction. Then the kinase reaction was started by the addition of 3 μL of a solution of adenosine-tri-phosphate (ATP, 3.3 mM=>final conc. in the 5 μL assay volume is 2 mM) and substrate (0.1 μM=>final conc. in the 5 μL assay volume is 0.06 μM) in assay buffer and the resulting mixture was incubated for a reaction time of 30 min at 22° C. The concentration of MKNK1 was adjusted depending of the activity of the enzyme lot and was chosen appropriate to have the assay in the linear range, typical concentrations were in the range of 0.003 μg/mL. The reaction was stopped by the addition of 5 μL of a solution of TR-FRET detection reagents (5 nM streptavidine-XL665 [Cisbio Bioassays, Codolet, France] and 1 nM anti-ribosomal protein S6 (pSer236)-antibody from Invitrogen [#44921G] and 1 nM LANCE EU-W1024 Labeled ProteinG [Perkin-Elmer, product no. AD0071]) in an aqueous EDTA-solution (100 mM EDTA, 0.1% (w/v) bovine serum albumin in 50 mM HEPES pH 7.5).
The resulting mixture was incubated for 1 h at 22° C. to allow the formation of complex between the phosphorylated biotinylated peptide and the detection reagents. Subsequently the amount of phosphorylated substrate was evaluated by measurement of the resonance energy transfer from the Eu-chelate to the streptavidine-XL. Therefore, the fluorescence emissions at 620 nm and 665 nm after excitation at 350 nm were measured in a TR-FRET reader, e.g. a Rubystar (BMG Labtechnologies, Offenburg, Germany) or a Viewlux (Perkin-Elmer). The ratio of the emissions at 665 nm and at […] was taken as the measure for the amount of phosphorylated substrate. The data were normalised (enzyme reaction without inhibitor=0% inhibition, all other assay components but no enzyme=100% inhibition).
The compound `C[C@@H]1COCCN1C(=O)c1cc2c(Nc3ccc4[nH]c(=O)sc4c3)ncnc2[nH]1` [Example 34] came in with an IC50 of 39 nM. Consider `CCCc1[nH]c2ncnc(Nc3ccc4[nH]c(=O)sc4c3)c2c1CC` [Example 22, 6-[(5-Ethyl-6-propyl-7H-pyrrolo[2,3-d]pyrimidin-4-yl)amino]-1,3-benzothiazol-2(3H)-one], for which the IC50 is 16 nM.

Compound `COc1cc2[nH]c(=O)sc2cc1Nc1ncnc2[nH]ccc12` [Example 19, 5-Methoxy-6-(7H-pyrrolo[2,3-d]pyrimidin-4-ylamino)-1,3-benzothiazol-2(3H)-one] yielded a concentration for half-maximal inhibition (IC50) of 11 nM.

Compound `CCOC(=O)c1cc2c(Nc3ccc4[nH]c(=O)sc4c3)ncnc2[nH]1` [Example 10, Ethyl 4-[(2-oxo-2,3-dihydro-1,3-benzothiazol-6-yl)amino]-7H-pyrrolo[2,3-d]pyrimidine-6-carboxylate] displayed a half-inhibitory concentration (IC50) of 2 nM.

`CN(C)C1CCN(C(=O)c2cc3c(Nc4ccc5[nH]c(=O)sc5c4)ncnc3[nH]2)CC1` [Example 31, 6-[(6-{[4-(Dimethylamino)piperidin-1-yl]carbonyl}-7H-pyrrolo[2,3-d]pyrimidin-4-yl)amino]-1,3-benzothiazol-2(3H)-one] registered an IC50 of 40 nM.
